Experimental data published in patent EP2952182A1, “Compounds and methods for increasing the immune response to papillomavirus” (Universitätsklinikum Heidelberg, priority 2014, dated 2015).

Tests used:
Caski cells = assay: CD107a mobilization (degranulation) assay of L1-stimulated T cells against pretreated Caski cells; format: cell-based
Procedure: PBMCs were obtained from blood of a healthy, HLA-A*0201 positive donor by density gradient centrifugation with lymphocyte separation medium (PAA, Pasching, Austria). PBMCs were resuspended in RPMI medium (Gibco, Paisley, UK), containing 5% human serum and seeded in cell culture flasks. After 4 hours of adherence at 37°C the non-adherent cells were removed. To stimulate the differentiation of monocytes into dendritic cells, the adherent fraction of cells was cultured in CellGro Medium (CellGenix, Freiburg, Germany) containing GM-CSF (1000 U/ml, Promokine, Heidelberg, Germany) and IL-4 (666,7 U/ml, Promokine, Heidelberg, Germany) for 5-7 days. Then, IL-4 and GM-CSF were added again together with a terminal differentiation-inducing cocktail containing the proinffammatory cytokines IL-6 (1000 U/ml Promokine, Heidelberg, Germany), IL-1β (10 ng/ml Promokine, Heidelberg, Germany), PGE-2 ([…], Promokine, Heidelberg, Germany) and TNF-α (10 ng/ml, Promokine, Heidelberg, Germany) were added and cells were incubated overnight. […]
To monitor the degranulation of L1-stimulated T cells (effectors) induced by Caski cells (targets), Caski cells pretreated with different concentrations of 5-Aza-2'-deoxycytidine (0.1 µM and 1.0 µM) for 12 days or untreated cells were used. […] Degranulation rate was measured as the fraction of CD107a/CD8 double staining cells relative to total CD8 positive cells (Fig. 5).

HPV16 L1 protein = assay: Detection of HPV L1 capsid protein by immunoblotting (Western blot) in treated Caski cells; format: cell-based; conditions: Caski cells treated for 28 days, band at approximately 55 kDa, anti HPV16 L1 polyclonal rabbit antibodies, Fig. 4
Procedure: 5-aza-2'-deoxycytidine was added daily to cultures of Caski cells at concentrations […]. Caski cells were cultured with medium changed every 24 hours. Treatments were stopped at day 28 and the cells were grown in the absence of drugs for […]. The same culture conditions were used for untreated and DMSO treated Caski cells. Samples were collected on days 7, 14, 21, 28 and 38 for genomic DNA and total RNA purifications.
Protein extracts were also obtained from Caski cells on days 7, 14, 21, 28 and 38 of treatment. Cells were lysed in RIPA buffer containing Protease Inhibitor Cocktail (Sigma). Whole-cell lysates were prepared in denaturing SDS sample buffer and subjected to 12% SDS-PAGE. Proteins were transferred to PVDF Membrane (Invitrogen) and the blots were blocked with 5% non-fat dry milk in TBS-T buffer. The anti HPV16 L1 polyclonal rabbit antibodies (kindly provided by Dr Martin Muller, DKFZ, Germany) were used to detect the HPV16 L1 protein. Horseradish peroxidase conjugated secondary antibodies (1:2000 dilution, Anti-rabbit IgG, HRP-linked Antibody #7074 (Cell Signaling) were detected using Western Blotting Chemiluminescence Luminol Reagent (Santa Cruz).

cancer cell lines = conditions: low-dose treatment; cited from earlier work

For Nc1ncn([C@@H]2O[C@H](CO)[C@@H](O)[C@H]2O)c(=O)n1 [azacitidine], the “cytolytic activity of T-cells stimulated in vitro with L1-derived peptides towards Caski cells” value (Caski cells; treated Caski cells expressing the L1-antigen, degranulation rate, Fig. 5 legend) was “Enhanced”.
With Nc1ncn([C@H]2C[C@H](O)[C@@H](CO)O2)c(=O)n1 [5-aza-2'-deoxycytidine] the “fraction of T cells undergoing degranulation (CD107a/CD8 double staining cells relative to total CD8 positive cells)” value (Caski cells; Caski cells pretreated with 0.1 µM and 1.0 µM for 12 days vs untreated, effectors and targets 1:1, 5 hours, Fig. 5) was “increased” and the “L1 protein expression level” value (HPV16 L1 protein) was “Significant increase”.
For Nc1ncn([C@@H]2O[C@H](CO)[C@@H](O)[C@H]2O)c(=O)n1 [5-azacytidine], the “expression of immune-related genes” value (cancer cell lines) is listed as “leads to expression of immune-related genes”.
